Test system: RBL 2H3 cells
Assay: assay for degranulation of the RBL 2H3 cells (release of β-hexose-aminidase induced by anti-DNP IgE and DNP-BSA antigen)
Assay type: cell-based, rat
From the text: The RBL 2H3 cell line, rat basophils that express the receptor with high affinity for the immunoglobulins of class E (FcεRl), is widely used for investigating allergic reactions, because in this cell line the chemical mediators of inflammation are released as a result of allergen specific-IgE-FcεRI binding.
Release of the enzyme β-hexose-aminidase, which is present together with histamine in the granules of mast cells and basophils, can be used as an index of cellular degranulation (Tanaka et al., 1991, Chem. Pharm. Bull, 39, 2072-2076; McCloskey et al., 1988, Proc. Natl. Acad. Sci., USA, 85, 7260-7264).
The activity of the enzyme β-hexose-aminidase, released by the stimulated RBL 2H3 cells, was determined by the method described by Yamanishi et al., 1995, Jour. Biotech. Biochem., 59 (7), 1272-1275, which envisages measurement of the enzymatic activity by measuring the absorbance of the product p-nitrophenol generated by the synthetic substrate p-nitrophenyl-N-acetyl-β-D-glucosamide. 1x10^5 RBL 2H3 cells, trypsinized from plates at confluence, were resuspended in a volume of 80 µl of the culture medium (MEM + 10% inactivated fetal bovine serum) and distributed in each well of the 96-well plates (Costar). After 24 hours, 20 µl of medium containing anti-2,4-dinitrophenol monoclonal IgEs (DNP, Sigma, Cat. No. D-8406) was added to each well.
The microplates were incubated at 37°C for one hour and then washed three times with 100 µl of HBS buffer solution (10 mM HEPES, 135 mM NaCl, 5 mM KCI, 1 mM CaCl2, 0.5 mM MgCl2, 5.6 mM glucose, 0.1 % BSA, pH 7.4). After the washings, 100 µl of HBS containing the 2,4-dinitrophenol antigen conjugated to BSA (Sigma, Cat. No. A-6661) was added. As a control, 100 µl of HBS containing 1% Triton X-100 was added to some wells to determine the total amount of enzyme contained in the cellular granules.
After further incubation at 37°C for two hours, 30 µl of cellular supernatant or of cellular lysate was transferred to a new microplate, to which 50 µl of sodium citrate buffer at pH 4.5, containing 4 mM p-nitrophenyl-N-acetyl-β-D-glucosaminide (Sigma, Cat. No. N9376), a specific substrate for the enzyme β-hexose-aminidase, had been added beforehand. After incubation for two hours at 37°C, the reaction was stopped by adding 100 µl of glycine solution 0.2 M, pH 10.7. The enzymatic activity was determined by measuring the absorbance at 405 nm with a Microplate Reader Model 3550 EIA (Bio-Rad).
In preliminary experiments the immunoglobulins E and the antigen were added at various concentrations in order to determine the optimum concentrations for induction of the reaction of enzymatic release. The conditions identified experimentally correspond to 0.5 µg/ml of IgE and 0.05 µg/ml of antigen DNP conjugated to BSA.
To verify the capacity of the peptides of formula IB and of comparative peptides for inhibiting the degranulation of the RBL 2H3 cells, the peptides were added in the assay together with the antigen at concentrations between 0.1 and 500 µg/ml.

(H-L-Cys(p-MeOBzl)-L-Arg-L-Thr-L-Tyr)2-Lys-Gly-Lys-OH [ID]
inhibition of degranulation, result in words compared with peptide IB: Results similar to the results obtained with peptide IB

— patent EP1997826A2, “Synthetic ligands for immunoglobulins and pharmaceutical compositions containing them” (Tecnogen S.p.A., priority 2007, dated 2008)
